The nature of data set [1]: Multi-component pharmacokinetic study of GQD, GQD-GC and single herb extracts in rats (plasma, LC/MS/MS). To be noted: for AUC(0-t) / Cmax / half-life / Tmax: male, Sprague-Dawley, rat; for AUC(0-t): po, read-out: AUClast; for Cmax: read-out: Cmax; for half-life: read-out: T1/2 (converted); for Tmax: read-out: Tmax. It is filed as in vivo, Sprague-Dawley rats. The procedure, abridged:
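Male Sprague-Dawley rats (220–250 g, n = 10 per group) dosed orally with GQD, GQD-GC (1.0 g crude drug/mL) or single-herb decoctions. Plasma analytes quantified by LC/MS/MS in positive-ESI SRM mode. Cmax and Tmax taken from measured data, other parameters by non-compartmental or compartmental analysis; mean ± SD.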

Data set [2] in a line: in vivo. Further details: species or system Sprague-Dawley rats. Conditions: male, Sprague-Dawley, rat, po. The method, then:
For the PK study of berberine and glycyrrhizic acid, rats were randomly divided into four groups (n = 8 for each group) before oral administration. Two groups were respectively treated with 59.4 mg/kg of berberine and 84.8 mg/kg of glycyrrhizic acid; the third group was treated with 59.4 mg/kg of berberine and 2.36 g/kg of licorice water decoction (0.5 g/mL); and the last group received 59.4 mg/kg of berberine and 84.8 mg/kg of glycyrrhizic acid. The dosage of single compounds were calculated according to their contents in the administrated GQD extract. Sample collection were the same as described for GQD. […] The plasma samples were stored at −80°C. Samples were prepared for LC/MS/MS analysis as described in our previous study (Qiao et al., [2012]), as described in Supplemental Data. LC/MS/MS calibration and quantitation data were processed with Xcalibur 2.0.7 software (ThermoFisher). The maximal plasma concentrations (Cmax) and their time of occurrence (Tmax) were obtained directly from the measured data. Other pharmacokinetic parameters were calculated by non-compartment or compartment models using WinNonlin® software (v6.1, Pharsight). Unless otherwise stated, results were expressed as the mean ± SD. Statistical significance in differences of the means was determined by Student's t–test, with a significance level of P < 0.05.

The mark [3] stands for this setting: plasma, 18.9 g/kg, GQD group: rats, oral GQD extract 18.9 g/kg, plasma.
[4] abbreviates: GQD group: rats, oral GQD extract 18.9 g/kg, plasma.
Setting [5] is: GQD-GC group (GQD without Gan-Cao): rats, oral 16.5 g/kg, plasma.
Setting [6] is: HL (Huang-Lian) group: rats, oral extract 3.54 g/kg, plasma.
Setting [7] is: GC (Gan-Cao) group: rats, oral extract 2.36 g/kg, plasma.

Molecules are shown by their SMILES. Read-outs that look alike come from different tables or passages of the source.

Consider `COc1ccc2cc3[n+](cc2c1OC)CCc1cc2c(cc1-3)OCO2` [Compound 24, berberine], for which the AUC(0-t) worked out at 198 ± 76.9 ng·h/mL in data set [1] (plasma, 3.54 g/kg, HL (Huang-Lian) group: rats, oral extract 3.54 g/kg, plasma); 198 ± 76.9 ng·h/mL in data set [1] (plasma, 3.54 g/kg, Huang-Lian group: rats, oral 3.54 g/kg, plasma); 149 ± 70.8 ng·h/mL in data set [1] (plasma, 16.5 g/kg, GQD-GC group (GQD without Gan-Cao): rats, oral 16.5 g/kg, plasma); 149 ± 70.8 ng·h/mL in data set [1] (plasma, 16.5 g/kg, GQD−GC group: rats, oral 16.5 g/kg, plasma); 389 ± 187 ng·h/mL in data set [1] (setting [3]). Besides, the peak concentration (Cmax) came to 28.2 ± 17.4 ng/mL in data set [1] (setting [4]), 32.3 ± 13.2 ng/mL in data set [1] (setting [5]), 76.7 ± 27.9 ng/mL in data set [1] (setting [6]) and 12.2 ± 4.85 ng/mL in data set [2] (59.4 mg/kg). The half-life in data set [1] (setting [4]) is 685 ± 167 min; in data set [1] (setting [5]), 425 ± 39 min; in data set [1] (setting [6]), 558 ± 100 min; in data set [2] (59.4 mg/kg, T1/2 of berberine), 452 ± 99 min. The Tmax in data set [1] (setting [4]) was 23.4 ± 45.6 min; in data set [1] (setting [5]) it was 21 ± 13.8 min; in data set [1] (setting [6]), 17.4 ± 67.2 min. Moreover, the “increase of AUClast in GQD group compared with the Huang-Lian group” value in data set [1] (rats, oral, GQD vs Huang-Lian) came out at 96.5%. Further, in data set [1] (rats, oral, abstract), the “improvement of plasma concentrations by GQD (vs Huang-Lian)” value was “at least 30%”. The “increase of AUClast of berberine by GLY” value in data set [2] is “around 6 folds”. Moreover, in data set [2] (59.4 mg/kg), the Cmax of berberine came to 117.12 ± 90.22 ng/mL. In data set [2] (59.4 mg/kg), the T1/2 of berberine came out at 8.47 ± 2.90 h.

Consider `CC1(C)[C@@H](O[C@H]2O[C@H](C(=O)O)[C@@H](O)[C@H](O)[C@H]2O[C@@H]2O[C@H](C(=O)O)[C@@H](O)[C@H](O)[C@H]2O)CC[C@]2(C)[C@H]3C(=O)C=C4[C@@H]5C[C@@](C)(C(=O)O)CC[C@]5(C)CC[C@@]4(C)[C@]3(C)CC[C@@H]12` [Compound 36, glycyrrhizic acid], for which, in data set [1] (setting [7]), the AUClast was 790.47 ± 362.54 ng·h/mL, the Cmax was 46.4 ± 0.89 ng/mL, the half-life was 245 ± 64.2 min and the Tmax came to 353 ± 58.8 min. In addition, in data set [1] (setting [3]), the AUC(0-t) was 871 ± 571 ng·h/mL. Moreover, in data set [1] (plasma, 18.9 g/kg, GQD group: rats, oral GQD 18.9 g/kg (1.5-fold of clinical dosage), plasma), the AUC(0-t) is 871 ± 571 ng·h/mL. Also, in data set [1] (setting [4]), the maximum concentration (Cmax) came to 55.6 ± 14.3 ng/mL, the half-life is 287 ± 599 min and the Tmax worked out at 414 ± 16.8 min. Also, the “change of pharmacokinetics by GQD compared with Gan-Cao” value in data set [1] (rats, oral) is given as “hardly changed”.

(Values after article PMC6018403 (Frontiers in Pharmacology, 2018).)
